Measured values from patent US10307411B2, “Use of cotinine in treating or preventing neurogenesis deficits and enhancing neurogenesis” (Department of Veterans Affairs, priority 2014, dated 2019).

Key:
[1] = test system: inflammation genes in the hippocampus of stressed mice; experiment: Inflammatory response and Autoimmunity PCR array (RT-PCR) on hippocampus of mice subjected to forced swimming stress; assay type: in vivo
Excerpt: Two-month-old male C57BU6J mice (The Jackson Laboratory, Bar Harbor, Me.), weighing 25-30 g were maintained on a 12-hours light/dark cycle (light on at 07:00) with ad libitum access to food and water and maintained at a regulated temperature of 25±1″C. Upon arrival mice were group-housed and acclimated for 7 days before any intervention.
Mice were randomly divided into three groups as follows: group 1 controls that were not exposed to stress (NES) and treated with vehicle (phosphate buffered saline, PBS); group 2 controls subjected to forced swimming stress (FSB) and treated with vehicle; group 3 subjected to forced swimming stress and treated with cotinine (FSA).
Cotinine ((5S)-1-methyl-5-(3-pyridyl) pyrrolidin-2-one; Sigma-Aldrich Corporation, St. Louis, Mo., USA) solutions were prepared by dissolving the powdered compound in sterile phosphate buffered saline (PBS), and vehicle (PBS). Mice were treated with vehicle or cotinine (5 mg/kg) via gavage. […] All investigators were blind to treatment groups and doses were chosen based on previously studies (Zeitlin, et al., (2012) Cotinine enhances the extinction of contextual fear memory and reduces anxiety after fear conditioning. Behav Brain Res, 228, 284-293.). Treatments were administered for 7 days before the induction of stress. For all animals, treatment continued from the onset of treatment until euthanasia.
To induce chronic stress, mice were subjected to repetitive forced swimming (FS) for six consecutive days, for six minutes each day, as described previously (Furukawa-Hibi, et al., (2011) The hydrophobic dipeptide Leu-lie inhibits immobility induced by repeated forced swimming via the induction of BDNF. Behav Brain Res. 2011 Jul. 7; 220(2):271-280). Each mouse was placed in an inescapable transparent plastic cylinder (40 centimeters (cm) high×20 cm in diameter) filled with water to a depth of 30 cm, for six minutes. Water temperature was maintained at 24-25° C. and water was changed between all trials. In all cases, following exposure, animals were retrieved, dried with a hand towel and returned to their home cages. Mice assigned to NES control group were removed from the animal housing facility and taken to the behavioral testing room during the same period of time than FS mice, but remained in their home cages during the FS period. In all experiments, no mice needed assistance to avoid drowning.
Following behavioral experimentation, euthanasia was performed via cervical dislocation under anesthesia with isofluorane (4% induction, 2% maintenance) by investigators not assigned to prior work with the mice blinded to the treatments. Whole brains were collected and immediately stored frozen at −80° C.
The hippocampi were dissected on ice and placed into RNAlater tubes (Life Technologies; Thermo Fisher Scientific, Waltham, Mass.). RNAlater is a proprietary solution which protects RNA in tissue samples from degradation to allow for analysis at a later date. RNase free conditions were created and maintained throughout the procedure by washing labware in a 0.1% DEPC solution followed by rinsing with RNase free water. Total RNA extraction and purification was performed using RNeasy Lipid Tissue Extraction Kit (Qiagen N.V., Venlon NL). Sample homogenization was performed using Kontes Pellet Pestle Cordless Motor and/or 20 gauge needle and syringe. Samples were extracted using a Qiazol/Chloroform extraction. The samples were purified on an RNeasy spin column using multiple washes. An on-column DNase incubation was performed in order to remove contaminating DNA. The entire extraction and purification step was performed twice to remove all contaminating DNA for samples ran on the neurogenesis arrays. Samples were eluted in RNase free water.
Nucleic acid quantification was performed on the RNA, to determine how many microliters of sample to add to the cDNA reaction, as the reaction requires a specific concentration of RNA to achieve optimal results. […]

aromatase = target: T1, aromatase (Homo sapiens, UniProt P11511); settings: in vitro; cited from earlier work
T1 sequence (P11511 1-503): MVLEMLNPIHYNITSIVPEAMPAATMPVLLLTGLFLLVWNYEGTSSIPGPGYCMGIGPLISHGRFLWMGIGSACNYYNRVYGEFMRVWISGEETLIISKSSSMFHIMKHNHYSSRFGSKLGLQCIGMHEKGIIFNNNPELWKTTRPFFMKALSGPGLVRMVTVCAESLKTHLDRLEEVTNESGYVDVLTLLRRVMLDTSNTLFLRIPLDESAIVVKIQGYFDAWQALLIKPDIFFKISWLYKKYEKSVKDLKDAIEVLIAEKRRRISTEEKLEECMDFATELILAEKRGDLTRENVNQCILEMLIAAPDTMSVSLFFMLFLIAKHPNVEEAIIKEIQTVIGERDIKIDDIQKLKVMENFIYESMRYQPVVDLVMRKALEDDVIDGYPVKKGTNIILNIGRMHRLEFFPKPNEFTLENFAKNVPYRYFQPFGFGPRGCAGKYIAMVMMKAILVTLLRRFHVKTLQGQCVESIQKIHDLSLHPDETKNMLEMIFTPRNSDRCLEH

[2] = administered in the drinking water for 78 weeks; rats initiated with FANFT; cited from earlier work
[3] = hippocampus, forced swimming stress, cotinine 5 mg/kg gavage vs stressed vehicle-treated (FSB)
[4] = stressed mouse, cotinine vs vehicle

## CN1C(=O)CC[C@H]1c1cccnc1 [cotinine, (5S)-1-methyl-5-(3-pyridyl) pyrrolidin-2-one]
[1]; cut off of two-fold difference, stressed mouse treated with cotinine versus stressed mouse treated with vehicle
  number of inflammation genes differentially expressed: 10 genes
[1]; forced swimming + cotinine compared to forced swimming + vehicle
  Fos expression decreased by: 2.5 fold
[1]; forced swimming + cotinine compared to stressed mouse treated with vehicle
  Complement component 3 (C3) decreased by: 2.9 fold
[1]; [3]
  C3 (Complement component 3) Fold regulation comparing to FSB: −2.89 fold
  Ccl1 (Chemokine (C-C motif) ligand 1) Fold regulation comparing to FSB: 2.21 fold
  Ccl2 (Chemokine (C-C motif) ligand 2) Fold regulation comparing to FSB: 2.46 fold
  Ccl3 (Chemokine (C-C motif) ligand 3) Fold regulation comparing to FSB: −4.00 fold
  Ccr2 (Chemokine (C-C motif) receptor 2) Fold regulation comparing to FSB: −2.87 fold
  Ccr4 (Chemokine (C-C motif) receptor 4) Fold regulation comparing to FSB: 2.96 fold
  Fos (FBJ osteosarcoma oncogene) Fold regulation comparing to FSB: −2.55 fold
  Nos2 (Nitric oxide synthase 2, inducible) Fold regulation comparing to FSB: −3.93 fold
  Tlr1 (Toll-like receptor 1) Fold regulation comparing to FSB: 2.32 fold
  Tnfsf14 (Tumor necrosis factor (ligand) superfamily, member 14) Fold regulation comparing to FSB: 6.18 fold
[1]; stressed mice treated with cotinine vs stressed vehicle, hippocampus
  inflammation genes analyzed that were down-regulated: 61%
[1]; [4]
  Ccl3 change (down regulated by cotinine): 2.8 fold
  Ccr2 change (down regulated by cotinine): 4.0 fold
aromatase
  inhibition of aromatase: inhibiting
[2]
  carcinogenicity / promotion of urinary bladder tumors: neither carcinogenic nor promoted urinary bladder tumors
